Among the data in BindingDB's records for doi:10.1038/42506 (The University of Tokyo, 1997) are Ki values, retold here.

In the assay the target is T1, Leukotriene B4 receptor 2 (Homo sapiens, UniProt Q9NPC1).
T1 sequence (Q9NPC1 whole entry): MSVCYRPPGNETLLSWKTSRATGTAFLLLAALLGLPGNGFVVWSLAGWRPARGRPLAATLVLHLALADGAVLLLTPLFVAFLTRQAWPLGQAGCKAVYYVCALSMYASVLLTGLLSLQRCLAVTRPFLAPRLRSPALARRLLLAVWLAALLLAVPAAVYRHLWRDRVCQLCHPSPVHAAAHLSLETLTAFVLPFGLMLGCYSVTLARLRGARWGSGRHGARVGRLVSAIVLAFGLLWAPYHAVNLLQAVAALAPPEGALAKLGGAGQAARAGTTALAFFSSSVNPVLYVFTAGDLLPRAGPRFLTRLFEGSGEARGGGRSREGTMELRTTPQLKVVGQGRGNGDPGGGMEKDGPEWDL
Broadly, the Ki is the dissociation constant of the complex between target and ligand, obtained from inhibition or displacement. For the compound `CCCCCCC=CC(=O)C=CC=CC=CC(O)CCCC(=O)O` (stereo not given) [CAS_5280876], the Ki amounted to 7.6 nM.
Compound `O=C(O)CCCCCC=CCC(O)C=CC=CC=CC(O)CCCC(=O)O` (stereo not given) [NSC_128572] came in with a Ki of 190 nM.
Take `O=C(O)CCCC(O)C=CC=CC=CC(O)CC=CCCCCCO` (stereo not given) [NSC_1589]: the affinity, expressed as Ki, was 7.6 nM.
`CCCCC/C=C\C[C@H](O)/C=C/c1cccc(C[C@H](O)CCCCO)n1` [(5R)-6-[6-[(1E,3S,5Z)-3-hydroxyundeca-1,5-dienyl]pyridin-2-yl]hexane-1,5-diol] had a Ki of 120 nM.
Turning to `COc1ccc(/C=C/CCCCOc2cccc(OCCCCC(=O)O)c2CCC(=O)O)cc1` [ONO 4057], the Ki stood at 1200 nM.
